Data on one compound can be found in US7074959B2, “Methods and systems for remediating hydrazine-contaminated equipment and/or surfaces” (New Mexico Highlands University, priority 2002, dated 2006).

The conditions of series [1]: MSDS listing; cited from earlier work.
Series [2] is described as follows: solubility of the hydrazine/2-ketoglutaric acid adduct in water. It is filed as physicochemical. The settings on record: allows separation of most of the adduct by simple filtration. The source says: FIG. 3 illustrates a schematic diagram 300 depicting a reaction of 2-ketoglutataric acid, which provides a near quantitative conversion of hydrazine to a 6-oxo-1,4,5,6-tetrahydro-pyridazine-3-carbonic acid, a preferred embodiment of the present invention. In general, the chemical transformation depicted in schematic diagram 300 of FIG. 3 allows for the removal of hydrazine from aqueous solutions generated by the decontamination processes described herein. The reaction with concentrated hydrazine also can provide the desired product with some evolution of heat.

With `O=C1CCC(C(=O)O)=NN1` [6-oxo-1,4,5,6-tetrahydro-pyridazine-3-carbonic acid], the “known acute toxicities listed in MSDS” value in series [1] is on record as “does not list any known acute toxicities”. The solubility in water result in series [2] is “low solubility”.
